Data published in patent US11447500B2, “Thienopyridine derivatives and pharmaceutical composition comprising same” (WELLMARKER BIO CO., LTD., priority 2018, dated 2022).

Key:
RON kinase = biological target: T1, RON kinase (Homo sapiens, UniProt Q04912); assay: RON kinase enzyme inhibitory activity, FRET (TR-FRET) technique; type: biochemical; details: 60 min reaction
T1 construct: purchased Carna Bioscience
Description: The enzyme inhibitory activity (IC50) of the thienopyridine derivative was measured using FRET (fluorescence resonance energy transfer) technique. RON kinase (Carna Bioscience) was diluted with a kinase assay buffer (50 mM HEPES pH 7.5, 1 mM EGTA, 10 mM MgCl2, 2 mM DTT, and 0.01% Tween-20) to a concentration of 2× (0.4 nM) the final reaction concentration and the dilution was added to a 384-well plate at 5 μL/well. As sample compounds, the compounds synthesized in the examples of the present invention and the compounds of the comparative examples were used. The sample compounds were respectively dissolved in 100% DMSO to obtain 1 mM stock solutions, which were then subjected to eight 10-fold serial dilutions. The sample compounds were diluted with the kinase assay buffer to a concentration of 4× the final reaction concentration, and the dilutions were added to the 384-well plate at 2.5 μL/well. The plate was incubated at room temperature for 15 minutes. Next, 0.25 M ATP solution (Sigma Aldrich) was diluted with the kinase reaction buffer to a concentration of 4× (60 μM) the final reaction concentration, and a tyrosine peptide substrate (Perkin-Elmer) was diluted therein to a concentration of 4× (400 nM) the final reaction concentration. The dilution was added to the 384-well plate at 2.5 μL/well. Then, the 384-well plate was incubated at room temperature and the reaction was allowed to proceed for 60 minutes. After 60 minutes, EDTA (Sigma Aldrich) was diluted with TR-FRET detection buffer (Perkin-Elmer) to a concentration of 4× (40 mM) the final reaction concentration. A europium-labeled anti-phosphotyrosine antibody (Perkin-Elmer) was diluted in the above EDTA dilution to a concentration of 4× (8 nM) the final reaction concentration to prepare a stop solution of the RON kinase reaction. The stop solution was added to the 384-well plate at 10 μL/well to terminate the reaction, and the plate was incubated at room temperature for 60 minutes. Thereafter, the plate was read on Victor X5 plate reader (Perkin-Elmer). At this time, the excitation wavelength was 340 nm and the emission wavelengths were 620 nm and 665 nm. The IC50 values of the sample compounds were determined using GraphPad Prism™ 5 by expressing the emission energy at 665 nm as a function of the sample compound concentration.

[1] = test system: RON-activated KM12C colon cancer cell line; assay: Cell killing efficacy, trypan blue exclusion assay, KM12C; type: cell-based; details: 48 hours
Description: (§1) Two colon cancer cell lines, RON-activated KM12C (80015, KCLB, MEM+10% FBS) and RON-mutated (Δ160) HT-29 (30038, KCLB, RPMI+10% FBS) were prepared in 6-well plates at 5×10^4 cells/well, respectively. After 24 hours, while freshly changing the medium, the sample compounds were added to the wells at a concentration of 1 μM or 5 μM and the plates were allowed to stand for 48 hours.
(§2) As the sample compounds, the compounds synthesized in the examples of the present invention and the compounds of the comparative examples were used.
(§3) After 48 hours, the cell suspensions were collected and centrifuged (1,500 rpm, 4 min.) to obtain the cells, and live cells and dead cells were quantitated (n=2) through a trypan blue (15250-061, Gibco) exclusion assay. The statistical analysis was performed using Excel™ T-test from Microsoft.
(§4) The cell death rates of the compounds of Examples and Comparative Examples were respectively measured and the results are shown in Table 4 as relative ratios to Comparative Example 1.

[2] = test system: RON-mutated (Δ160) HT-29 colon cancer cell line; assay: Cell killing efficacy, trypan blue exclusion assay, HT-29; type: cell-based; details: HT29 cell, 48 hours
Description: as §1, §2, §3, §4

KM12C cells = assay: Cytotoxicity MTS assay, KM12C; type: cell-based; details: Homo sapiens, 72 hours
Description: (§5) In order to confirm the specific cytotoxicity of the drugs, the cultured cells were treated with 0.05% trypsin/EDTA (0.5% trypsin EDTA (10×), Product No.: 15400-054, GIBCO) to detach them from the culture dish, and 3,000 cells (KM12C) or 2,000 cells (HT29, Colo 320 HSR) were dispensed into each well.
(§6) After 24 hours, sample compounds were dissolved in DMSO (Product No.: D8418-250ML, SIGMA) to make 10 mM stock solutions. As the sample compounds, the compounds synthesized in the examples of the present invention and the compounds of the comparative examples were used.
(§7) The cells were treated with the sample compound dilutions, and cultured in a 5% CO2 incubator at 37° C. for 72 hours.
(§8) Thereafter, 20 μL of MTS solution (CellTiter™ 96 Aqueous One Solution Cell Proliferation Assay, Product No.: G3581, Promega) was dispensed into each well and mixed well, and the cells were incubated for 1 to 4 hours at 37° C. in a 5% CO2 incubator.

HT29 cells = assay: Cytotoxicity MTS assay, HT29; type: cell-based; details: Homo sapiens, HT-29, 72 hours
Description: as §5, §6, §7, §8

T1 sequence (Q04912 25-1400): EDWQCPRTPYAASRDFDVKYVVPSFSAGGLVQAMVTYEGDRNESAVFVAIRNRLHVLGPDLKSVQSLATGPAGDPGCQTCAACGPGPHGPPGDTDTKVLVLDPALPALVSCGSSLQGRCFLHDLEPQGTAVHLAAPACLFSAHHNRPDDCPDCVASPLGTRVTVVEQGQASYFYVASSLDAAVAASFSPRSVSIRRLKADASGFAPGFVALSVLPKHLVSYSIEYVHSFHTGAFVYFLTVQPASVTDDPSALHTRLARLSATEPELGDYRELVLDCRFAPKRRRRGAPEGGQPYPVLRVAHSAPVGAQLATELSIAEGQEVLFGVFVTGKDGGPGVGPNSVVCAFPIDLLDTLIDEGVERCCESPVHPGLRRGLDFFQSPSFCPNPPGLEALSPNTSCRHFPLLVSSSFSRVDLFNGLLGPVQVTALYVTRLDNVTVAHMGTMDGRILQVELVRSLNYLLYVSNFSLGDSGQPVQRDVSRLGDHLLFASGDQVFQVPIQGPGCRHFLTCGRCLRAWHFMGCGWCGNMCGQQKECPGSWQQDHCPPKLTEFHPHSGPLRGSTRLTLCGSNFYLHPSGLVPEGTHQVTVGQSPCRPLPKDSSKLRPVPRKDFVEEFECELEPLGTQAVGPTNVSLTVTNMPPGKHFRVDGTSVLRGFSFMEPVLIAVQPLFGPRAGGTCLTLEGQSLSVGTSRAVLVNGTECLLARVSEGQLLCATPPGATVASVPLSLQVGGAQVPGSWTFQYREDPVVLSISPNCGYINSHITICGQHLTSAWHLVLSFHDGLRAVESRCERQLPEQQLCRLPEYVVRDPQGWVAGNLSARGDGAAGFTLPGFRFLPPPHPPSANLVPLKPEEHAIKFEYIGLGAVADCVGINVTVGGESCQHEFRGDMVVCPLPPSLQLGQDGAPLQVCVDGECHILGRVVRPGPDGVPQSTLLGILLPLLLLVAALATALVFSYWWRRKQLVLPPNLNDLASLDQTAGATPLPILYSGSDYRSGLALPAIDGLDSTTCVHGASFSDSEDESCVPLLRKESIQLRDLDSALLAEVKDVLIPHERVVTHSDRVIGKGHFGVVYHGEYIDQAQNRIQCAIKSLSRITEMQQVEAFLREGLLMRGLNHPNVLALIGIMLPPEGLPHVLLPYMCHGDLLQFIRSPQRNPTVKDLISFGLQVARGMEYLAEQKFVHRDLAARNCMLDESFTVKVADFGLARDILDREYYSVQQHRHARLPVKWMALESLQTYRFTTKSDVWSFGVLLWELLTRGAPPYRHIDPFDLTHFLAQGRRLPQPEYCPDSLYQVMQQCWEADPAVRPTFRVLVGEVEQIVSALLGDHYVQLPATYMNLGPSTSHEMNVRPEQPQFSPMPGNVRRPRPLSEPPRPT

Row | SMILES | IC50 (RON kinase) [nM] | Cell death rate (Relative to Comp. Ex. 1) ([1]; 1 μM) | Cell death rate (Relative to Comp. Ex. 1) ([1]; 5 μM) | Cell death rate (Relative to Comp. Ex. 1) ([2]; 1 μM) | Cell death rate (Relative to Comp. Ex. 1) ([2]; 5 μM) | IC50 (KM12C cells) [nM] | IC50 (HT29 cells) [nM]
1 | CCOc1ccn(-c2ccc(F)cc2)c(=O)c1C(=O)Nc1ccc(Oc2ccnc(N)c2Cl)c(F)c1 [Comp. Ex. 1, N-{4-[(2-amino-3-chloro-4-pyridinyl)oxy]-3-fluorophenyl}-4-ethoxy-1-(4-fluorophenyl)-2-oxo-1,2-dihydro-3-pyridinecarboxamide, reference compound] | 1.11 | x 1.00 | x 1.00 | x 1.00 | x 1.00 | 511 | 10000 to 20000
2 | COCCNCc1ccc(-c2cc3nccc(Oc4ccc(NC(=O)c5c(C)ccn(-c6ccccc6)c5=O)cc4F)c3s2)nc1.Cl [Example 28, N-(3-fluoro-4-{[-2-(5-{[(2-methoxyethyl)amino]methyl}pyridin-2-yl)thieno[3,2-b]pyridin-7-yl]oxy}phenyl)-4-methyl-2-oxo-1-phenyl-1,2-dihydropyridine-3-carboxamide Hydrochloride] | 0.56 | x 1.22 | x 1.58 | x 1.46 | x 2.65 | 59 | 908
3 | CCOc1ccn(-c2ccc(F)cc2)c(=O)c1C(=O)Nc1ccc(Oc2ccnc3cc(-c4ccc(CN5CCOCC5)cn4)sc23)c(F)c1.Cl [Example 31, 4-ethoxy-N-[3-fluoro-4-({2-[5-(morpholinomethyl)pyridin-2-yl]thieno[3,2-b]pyridin-7-yl}oxy)phenyl]-1-(4-fluorophenyl)-2-oxo-1,2-dihydropyridine-3-carboxamide Hydrochloride] | 0.39 | x 1.52 | x 1.17 | x 2.11 | x 1.21 | 7 | 609
4 | CCOc1ccn(-c2cccc(F)c2)c(=O)c1C(=O)Nc1ccc(Oc2ccnc3cc(-c4ccc(CNCCOC)cn4)sc23)c(F)c1.Cl [Example 14, 4-ethoxy-N-(3-fluoro-4-{[2-(5-{[(2-methoxyethyl)amino]methyl}pyridin-2-yl)thieno[3,2-b]pyridin-7-yl]oxy}phenyl)-1-(3-fluorophenyl)-2-oxo-1,2-dihydropyridine-3-carboxamide Hydrochloride] | 0.45 | x 1.58 | x 1.43 | x 1.59 | x 3.81 | 63 | 668
5 | CCOc1ccn(-c2ccccc2)c(=O)c1C(=O)Nc1ccc(Oc2ccnc3cc(-c4ccc(CNCCOC)cn4)sc23)c(F)c1.Cl [Example 1, 4-ethoxy-N-(3-fluoro-4-{[2-(5-{[(2-methoxyethyl)amino]methyl}pyridin-2-yl)thieno[3,2-b]pyridin-7-yl]oxy}phenyl)-2-oxo-1-phenyl-1,2-dihydropyridine-3-carboxamide hydrochloride] | 0.51 | x 3.37 | x 2.47 | x 4.06 | x 2.41 | 45 | 1100
6 | CCOc1ccn(-c2ccccc2)c(=O)c1C(=O)Nc1ccc(Oc2ccnc3cc(-c4ccc(CN5CCN(C)CC5)cn4)sc23)c(F)c1.Cl [Example 34, Hydrochloride] | 0.23 |  |  |  |  | 6 | 129
7 | COCCNCc1ccc(-c2cc3nccc(Oc4ccc(NC(=O)c5ccc(C)n(-c6ccc(F)cc6)c5=O)cc4F)c3s2)nc1.Cl [Example 22, N-(3-fluoro-4-{[2-(5-{[(2-methoxyethyl)amino]methyl}pyridin-2-yl)thieno[3,2-b]pyridin-7-yl]oxy}phenyl)-1-(4-fluorophenyl)-6-methyl-2-oxo-1,2-dihydropyridine-3-carboxamide Hydrochloride] | 0.44 | x 1.48 | x 1.61 | x 1.07 | x 1.71 | 1 | 1180
8 | COCCNCc1ccc(-c2cc3nccc(Oc4ccc(NC(=O)c5ccc(C)n(-c6ccccc6)c5=O)cc4F)c3s2)nc1.Cl [Example 21, N-(3-fluoro-4-{[2-(5-{[(2-methoxyethyl)amino]methyl}pyridin-2-yl)thieno[3,2-b]pyridin-7-yl]oxy}phenyl)-6-methyl-2-oxo-1-phenyl-1,2-dihydropyridine-3-carboxamide Hydrochloride] | 0.56 | x 0.93 | x 4.06 | x 1.30 | x 4.10 | 1500 | 1300
9 | COCCNCc1ccc(-c2cc3nccc(Oc4ccc(NC(=O)c5c(C)ccn(-c6ccc(F)cc6)c5=O)cc4F)c3s2)nc1.Cl [Example 25, N-(3-fluoro-4-{[2-(5-{[(2-methoxyethyl)amino]methyl}pyridin-2-yl)thieno[3,2-b]pyridin-7-yl]oxy}phenyl)-1-(4-fluorophenyl)-4-methyl-2-oxo-1,2-dihydropyridine-3-carboxamide Hydrochloride] | 0.23 | x 0.44 | x 0.69 | x 3.13 | x 2.97 | 25 | 1380
10 | CCOc1ccn(-c2ccccc2)c(=O)c1C(=O)Nc1ccc(Oc2ccnc3cc(-c4ccc(CN5CCOCC5)cn4)sc23)c(F)c1.Cl [Example 32, 4-ethoxy-N-[3-fluoro-4-({2-[5-(morpholinomethyl)pyridin-2-yl]thieno[3,2-b]pyridin-7-yl}oxy)phenyl]-2-oxo-1-phenyl-1,2-dihydropyridine-3-carboxamide Hydrochloride] | 0.81 | x 1.52 | x 1.11 | x 1.55 | x 1.45 | 3 | 325
